Calls of active or inactive are those of the source.
Experiments:
[1] = biological target: T1, Calpain-2 catalytic subunit (Sus scrofa, UniProt P43367); assay: m-calpain protease blockers, concentration series – biochemical, fluorogenic peptide substrate, dose response (AID 1420); assay type: functional
T1 sequence (P43367 whole entry): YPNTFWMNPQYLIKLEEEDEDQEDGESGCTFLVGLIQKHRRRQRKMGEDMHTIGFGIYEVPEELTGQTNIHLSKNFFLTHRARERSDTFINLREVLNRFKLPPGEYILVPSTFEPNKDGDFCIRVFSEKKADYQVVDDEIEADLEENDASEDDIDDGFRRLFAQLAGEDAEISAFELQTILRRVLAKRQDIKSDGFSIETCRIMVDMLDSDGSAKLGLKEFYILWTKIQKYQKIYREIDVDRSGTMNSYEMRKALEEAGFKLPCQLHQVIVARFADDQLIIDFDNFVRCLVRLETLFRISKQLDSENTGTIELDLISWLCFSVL

[2] = biological target: T2, RNA-binding protein pos-1 (Caenorhabditis elegans, UniProt G5EF15); assay: disruptors of C. elegans POS-1 RNA interaction – biochemical, fluorescence polarization, dose response (AID 1964);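 note: purified POS-1 fused to maltose binding protein made in E. coli; potency of compounds blocking POS-1 binding to fluorescent RNA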
T2 sequence (G5EF15 whole entry): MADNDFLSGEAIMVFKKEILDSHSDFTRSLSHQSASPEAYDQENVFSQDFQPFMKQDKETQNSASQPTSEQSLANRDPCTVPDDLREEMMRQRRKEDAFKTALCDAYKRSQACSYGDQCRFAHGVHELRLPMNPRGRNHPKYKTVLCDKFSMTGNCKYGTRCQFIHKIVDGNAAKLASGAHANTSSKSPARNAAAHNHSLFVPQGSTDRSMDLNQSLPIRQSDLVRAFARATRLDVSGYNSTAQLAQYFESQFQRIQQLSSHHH

[3] = biological target: T3, Zinc finger protein mex-5 (Caenorhabditis elegans, UniProt Q9XUB2); assay: potency of MEX-5 RNA-binding blockers – biochemical, C. elegans, fluorescence polarization, dose response (AID 1960)
T3 sequence (Q9XUB2 whole entry): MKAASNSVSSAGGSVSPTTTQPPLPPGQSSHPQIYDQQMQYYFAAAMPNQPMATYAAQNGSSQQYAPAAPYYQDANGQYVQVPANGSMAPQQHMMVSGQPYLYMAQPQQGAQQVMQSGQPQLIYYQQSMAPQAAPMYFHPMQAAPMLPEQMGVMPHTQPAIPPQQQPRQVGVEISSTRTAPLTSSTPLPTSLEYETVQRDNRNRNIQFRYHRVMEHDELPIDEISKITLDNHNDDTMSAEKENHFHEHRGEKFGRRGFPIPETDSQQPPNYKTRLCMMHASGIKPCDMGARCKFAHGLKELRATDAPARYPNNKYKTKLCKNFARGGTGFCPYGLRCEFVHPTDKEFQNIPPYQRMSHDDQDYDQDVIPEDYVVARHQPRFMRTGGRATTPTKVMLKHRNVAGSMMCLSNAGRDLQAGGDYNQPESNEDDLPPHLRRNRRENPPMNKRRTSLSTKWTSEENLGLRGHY

Cytochrome P450 3A4 = Cytochrome P450 3A4 (Homo sapiens, UniProt P08684); conditions: Potency;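 note: confirmatory qHTS run detecting inhibitors and substrates of CYP3A4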
H4 = assay: Luminescence Cell-Based Dose Response HTS to Identify Activators of 5'UTR Stem-Loop Driven Prion Protein mRNA Translation in H4 Neuroglioblastoma Cells. [Related pubchem assays: 1829 (Project Summary), 1814 (Primary HTS)]; assay type: functional; conditions: Homo sapiens
[4] = Luminescence Cell-Based Dose Confirmation HTS to Identify Activators of 5'UTR Stem-Loop Driven Alpha-Synuclein mRNA Translation in H4 Neuroglioblastoma Cells. [Related pubchem assays: 1829 (Project Summary), 1814 (Primary HTS)]; assay type: functional
[5] = Luminescence Cell-Based Dose Response HTS to Identify Activators of Luciferase Translation or Activity in H4 […] Cells. [Related pubchem assays: 1829 (Project Summary), 1814 (Primary HTS)]; assay type: functional
[6] = test system: Streptococcus sp. 'group A'; assay: Streptococcus pyogenes SK(-)GAS viability under kanamycin – luminescence, BacTiterGlo, confirmation, counter-screen for streptokinase expression inhibitor project, dose response (AID 1900); assay type: functional, organism-based
Streptokinase A = biological target: T4, Streptokinase A (Streptococcus pyogenes serotype M1, UniProt P10520); assay: viability-normalized secreted streptokinase activity reduction – plasminogen activation absorbance, OD405, dose response (AID 1914); assay type: functional, Streptococcus pyogenes M1 GAS;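 note: secreted streptokinase activity via plasminogen activation per viability signal from cell pellet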
T4 sequence (P10520 whole entry): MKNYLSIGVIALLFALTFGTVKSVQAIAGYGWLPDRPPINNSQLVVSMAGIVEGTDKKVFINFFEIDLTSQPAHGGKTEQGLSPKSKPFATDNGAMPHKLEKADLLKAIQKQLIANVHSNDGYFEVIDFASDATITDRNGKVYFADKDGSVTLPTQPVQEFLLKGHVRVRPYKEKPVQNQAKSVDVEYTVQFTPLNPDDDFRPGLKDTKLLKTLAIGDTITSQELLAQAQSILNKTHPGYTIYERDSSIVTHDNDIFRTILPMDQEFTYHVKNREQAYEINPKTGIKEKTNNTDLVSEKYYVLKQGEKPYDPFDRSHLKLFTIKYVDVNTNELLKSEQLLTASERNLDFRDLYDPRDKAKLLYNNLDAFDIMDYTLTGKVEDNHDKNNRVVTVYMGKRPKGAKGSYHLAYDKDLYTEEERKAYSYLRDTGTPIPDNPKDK

Streptococcus = assay: GAS UMAA2166 growth inhibition – luminescence, BacTiterGlo, counter-screen for streptokinase expression inhibitor project, dose response (AID 1915); assay type: functional, organism-based;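 note: potency for reduction of bacterial viability or growth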
[7] = biological target: Induced myeloid leukemia cell differentiation protein Mcl-1 (Homo sapiens, UniProt Q07820); assay type: functional
[8] = blockers of HIV-1 envelope-mediated cell-cell fusion – cherry-pick, dose response (AID 652057); assay type: functional, cell-based
[9] = biological target: T5, Carboxy-terminal domain RNA polymerase II polypeptide A small phosphatase 1 (Homo sapiens, UniProt Q9GZU7); assay: CTDSP1 inhibitors, concentration-response, biochemical, absorbance readout, ultra-high-throughput screen actives (AID 540297); assay type: functional
T5 sequence (Q9GZU7 whole entry): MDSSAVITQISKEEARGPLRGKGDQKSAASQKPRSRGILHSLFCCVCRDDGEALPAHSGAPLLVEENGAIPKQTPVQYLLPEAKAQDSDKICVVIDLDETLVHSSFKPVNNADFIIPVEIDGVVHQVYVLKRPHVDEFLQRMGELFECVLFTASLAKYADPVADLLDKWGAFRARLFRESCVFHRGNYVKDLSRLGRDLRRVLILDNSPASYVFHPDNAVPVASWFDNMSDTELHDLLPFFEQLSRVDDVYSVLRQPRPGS

[10] = reduction of Shn3 3'UTR-driven luciferase in osteoblasts – cell-based, Clone20 osteoblasts, firefly luciferase, cherry-picked, dose response (AID 624132); assay type: functional;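 note: firefly luciferase luminescence from reporter carrying the Shn3 3'UTR in osteoblasts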
[11] = HIV-1 AD8 envelope cell-cell fusion blockers – cherry-pick, dose response (AID 652062); assay type: functional, cell-based;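 note: luciferase signal from cell-cell fusion driven by HIV-1 clade B AD8 Env; potency is for inhibitors of fusion seen as a drop in luminescence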
[12] = non-specific 3'UTR reporter inhibition in Clone20-Shn3RL – cell-based, Renilla luciferase, cherry-picked, counter-screen for Shn3 inhibitor project, dose response (AID 624133); assay type: functional
[13] = loss of viability in HepG2 cells – cell-based, CellTiter-Glo, cherry-picked, cytotoxicity control for Shn3 inhibitor project, dose response (AID 624134); assay type: functional
[14] = blockers of HIV-1 ZM109 envelope-driven cell-cell fusion – HeLa effector, CEM target cells, luciferase, cherry-pick, dose response (AID 652058); assay type: functional, cell-based;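 note: luciferase signal from HIV-1 Env mediated cell-cell fusion of effector and target cells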

Chain of Induced myeloid leukemia cell differentiation protein Mcl-1 (Q07820 whole entry, the tested form may be a part): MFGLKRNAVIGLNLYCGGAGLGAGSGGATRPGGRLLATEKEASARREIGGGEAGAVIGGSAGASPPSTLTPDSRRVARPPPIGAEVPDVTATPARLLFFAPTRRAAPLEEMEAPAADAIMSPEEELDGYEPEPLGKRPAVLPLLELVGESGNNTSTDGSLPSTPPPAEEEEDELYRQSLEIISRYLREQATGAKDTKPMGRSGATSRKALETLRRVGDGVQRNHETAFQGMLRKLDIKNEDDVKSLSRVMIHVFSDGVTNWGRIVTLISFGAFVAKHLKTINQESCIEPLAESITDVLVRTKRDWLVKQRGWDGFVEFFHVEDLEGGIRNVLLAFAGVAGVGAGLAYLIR
Chain of Cytochrome P450 3A4 (P08684 whole entry): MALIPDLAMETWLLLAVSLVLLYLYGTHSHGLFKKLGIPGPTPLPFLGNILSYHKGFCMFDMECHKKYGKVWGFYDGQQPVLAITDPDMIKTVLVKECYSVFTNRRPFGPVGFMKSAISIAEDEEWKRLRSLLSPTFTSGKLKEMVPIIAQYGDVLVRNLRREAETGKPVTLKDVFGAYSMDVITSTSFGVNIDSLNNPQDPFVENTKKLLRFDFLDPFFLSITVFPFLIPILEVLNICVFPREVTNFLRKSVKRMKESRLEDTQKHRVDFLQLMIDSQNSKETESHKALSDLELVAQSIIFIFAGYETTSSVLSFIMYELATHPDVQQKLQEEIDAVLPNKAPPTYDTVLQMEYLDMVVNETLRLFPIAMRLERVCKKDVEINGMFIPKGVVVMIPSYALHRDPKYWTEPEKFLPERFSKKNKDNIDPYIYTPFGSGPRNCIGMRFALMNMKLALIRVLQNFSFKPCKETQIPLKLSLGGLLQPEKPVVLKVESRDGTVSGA

SMILES: Cc1cc(C(=O)O)ccc1-n1c(C)cc(/C=C(/C#N)C(=O)Nc2ccccc2)c1C
- IC50 [1]: 12.6 µM (not active)
- EC50 [2]: > 300 µM (not active)
- EC50 [3]: > 300 µM (not active)

SMILES: COc1cccc(O)c1O [3-METHOXYCATECHOL]
- AC50 (Cytochrome P450 3A4): 20 µM (inconclusive)

SMILES: Cc1ccc(Oc2cnn(-c3ccccc3)c(=O)c2Br)cc1
- EC50 (H4): 30.7 µM (active)
- EC50 [4]: > 120 µM (not active)
- EC50 [5]: 27 µM (active)

SMILES: O=C(Nc1ccccc1C(=O)O)c1cccc(NC(=O)c2ccc(Br)o2)c1
- EC50 [6]: 6.27 µM (active)
- EC50 (Streptokinase A): 6.41 µM (active)
- EC50 (Streptococcus): 9.37 µM (active)
- IC50 [1]: 12.1 µM (not active)

SMILES: CCOc1ccccc1NC(=O)/C=C/C(N)=O
- IC50 [7]: 1.1 µM (not active)

SMILES: COc1cccc(S(=O)(=O)N(C)C[C@H]2Oc3cc(C4=CCCC4)ccc3S(=O)(=O)N([C@H](C)CO)C[C@@H]2C)c1
- AC50 [8]: 34.2 µM (active)

SMILES: O=C(N/N=C/c1ccc(-c2ccccc2C(=O)O)o1)c1cccs1
- IC50 [9]: 4.6 µM (active)
- IC50 [7]: 5.27 µM (active)

SMILES: Cn1nc(-c2ccc(OCC(=O)N3CCN(Cc4ccccc4)CC3)cc2)c2ccccc2c1=O
- AC50 [10]: 2.1 µM (active)
- AC50 [11]: 23.5 µM (active)
- AC50 [12]: 4.74 µM (active)
- AC50 [13]: 32.4 µM (active)
- AC50 [14]: 27.4 µM (active)

SMILES: CC(=O)OC1CCC2(C)C3=C(CCC2C1(C)C)[C@]1(C)CCC(C(C)CCC=C(C)C)[C@]1(C)CC3 (stereo partly specified)
- AC50 (Cytochrome P450 3A4): 31.6 µM (inconclusive)

SMILES: C[C@H]1CN([C@@H](C)CO)C(=O)c2c(c3ccccc3n2C)-c2ccccc2CO[C@H]1CN(C)C(=O)Cc1ccccc1
- AC50 [11]: < 0.26 µM (active)
- AC50 [8]: < 0.26 µM (active)
- AC50 [14]: < 0.26 µM (active)

SMILES: C[C@H]1CN([C@@H](C)CO)C(=O)c2cc(NC(=O)Nc3ccc4c(c3)OCO4)ccc2O[C@H]1CN(C)S(=O)(=O)c1cccs1
- AC50 [11]: 29.3 µM (active)
- AC50 [8]: 6.19 µM (active)
- AC50 [14]: 24.7 µM (active)

SMILES: CC(=O)c1c(C(C)=O)c(C)n(C(c2ccccc2)c2ccccc2)c1C
- IC50 [1]: > 50 µM (not active)

SMILES: CC1CCN(C(c2ccc(N(C)C)cc2)c2nnnn2C(C)(C)C)CC1 (stereo unspecified)
- IC50 [7]: > 54 µM (active)

SMILES: C=C(C)C(O)/C=C/C=C/c1ccccc1 (stereo unspecified)
- AC50 (Cytochrome P450 3A4): 3.98 µM (inconclusive)

SMILES: C=CC(C1=CC(=O)C=CC1=O)c1ccccc1 (stereo unspecified) [DALBERGIONE]
- AC50 (Cytochrome P450 3A4): 31.6 µM (inconclusive)
